Data: ChEMBL document CHEMBL5678809, “Preclinical characterization of GLPG0634, a selective inhibitor of JAK1, for the treatment of inflammatory diseases” (J Immunol, 2013)
Activity calls are given as the source filed them. The calls are words filed in the database; no cut-off is given here.

Key:
[1] = molecular target: Activated CDC42 kinase 1 (Homo sapiens) (UniProt Q07912); assay: Inhibition of ACK1 (unknown origin) at 1 uM relative to control
[2] = molecular target: Tyrosine-protein kinase BTK (Homo sapiens, UniProt Q06187); assay: Inhibition of BTK (unknown origin)
[3] = molecular target: Cyclin-dependent kinase 1/cyclin B1 (Homo sapiens) (UniProt P06493+P14635); assay: Inhibition of CDK1/cyclinB (unknown origin) at 1 uM relative to control; assay type: protein-complex assay
[4] = molecular target: Serine/threonine-protein kinase Chk2 (Homo sapiens) (UniProt O96017); assay: Inhibition of CHK2 (unknown origin) at 1 uM relative to control
[5] = molecular target: Serine/threonine-protein kinase DCLK2 (Homo sapiens) (UniProt Q8N568); assay: Inhibition of DCAMKL2 (unknown origin) at 1 uM relative to control
[6] = molecular target: Ephrin type-A receptor 2 (Homo sapiens) (UniProt P29317); assay: Inhibition of EphA2 (unknown origin) at 1 uM relative to control
[7] = molecular target: Serine/threonine-protein kinase haspin (Homo sapiens) (UniProt Q8TF76); assay: Inhibition of Haspin (unknown origin) at 1 uM relative to control
Serine/threonine-protein kinase haspin (Homo sapiens), sequence (Q8TF76 whole entry): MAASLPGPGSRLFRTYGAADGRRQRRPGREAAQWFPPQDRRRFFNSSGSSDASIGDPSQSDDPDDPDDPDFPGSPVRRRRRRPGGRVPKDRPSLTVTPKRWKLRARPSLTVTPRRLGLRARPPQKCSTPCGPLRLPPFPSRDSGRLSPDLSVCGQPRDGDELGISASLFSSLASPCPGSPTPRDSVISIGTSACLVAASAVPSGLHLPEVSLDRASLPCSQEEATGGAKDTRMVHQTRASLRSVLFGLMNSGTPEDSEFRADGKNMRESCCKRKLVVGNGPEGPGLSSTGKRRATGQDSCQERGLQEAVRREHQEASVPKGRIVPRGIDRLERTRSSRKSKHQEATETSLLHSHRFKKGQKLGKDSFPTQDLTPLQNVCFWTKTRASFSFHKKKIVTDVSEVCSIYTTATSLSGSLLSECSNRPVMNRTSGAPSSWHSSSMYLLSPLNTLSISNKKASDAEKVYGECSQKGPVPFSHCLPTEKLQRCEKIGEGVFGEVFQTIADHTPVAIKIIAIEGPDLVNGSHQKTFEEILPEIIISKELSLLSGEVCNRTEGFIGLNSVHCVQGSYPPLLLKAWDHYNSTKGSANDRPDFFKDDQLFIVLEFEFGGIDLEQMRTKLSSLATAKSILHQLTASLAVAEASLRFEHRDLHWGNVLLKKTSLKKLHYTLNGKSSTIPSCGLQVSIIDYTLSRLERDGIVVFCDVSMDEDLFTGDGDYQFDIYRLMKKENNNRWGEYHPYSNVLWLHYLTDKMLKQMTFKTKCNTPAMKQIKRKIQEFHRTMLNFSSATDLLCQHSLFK

[8] = molecular target: Insulin receptor-related protein (Homo sapiens) (UniProt P14616); assay: Inhibition of IRR (unknown origin) at 1 uM relative to control
[9] = molecular target: Mitogen-activated protein kinase kinase kinase kinase 4 (Homo sapiens, UniProt O95819); assay: Inhibition of MAP4K4 (unknown origin)
[10] = molecular target: Mitogen-activated protein kinase 14 (Homo sapiens, UniProt Q16539); assay: Inhibition of MAPK14 (unknown origin)
[11] = molecular target: MAP kinase-activated protein kinase 2 (Homo sapiens) (UniProt P49137); assay: Inhibition of MAPK2 (unknown origin) at 1 uM relative to control
[12] = molecular target: Dual specificity mitogen-activated protein kinase kinase 7 (Homo sapiens) (UniProt O14733); assay: Inhibition of MKK7 (unknown origin) at 1 uM relative to control
[13] = molecular target: SRSF protein kinase 3 (Homo sapiens) (UniProt Q9UPE1); assay: Inhibition of MSSK1 (unknown origin) at 1 uM relative to control
SRSF protein kinase 3 (Homo sapiens), sequence (Q9UPE1 whole entry): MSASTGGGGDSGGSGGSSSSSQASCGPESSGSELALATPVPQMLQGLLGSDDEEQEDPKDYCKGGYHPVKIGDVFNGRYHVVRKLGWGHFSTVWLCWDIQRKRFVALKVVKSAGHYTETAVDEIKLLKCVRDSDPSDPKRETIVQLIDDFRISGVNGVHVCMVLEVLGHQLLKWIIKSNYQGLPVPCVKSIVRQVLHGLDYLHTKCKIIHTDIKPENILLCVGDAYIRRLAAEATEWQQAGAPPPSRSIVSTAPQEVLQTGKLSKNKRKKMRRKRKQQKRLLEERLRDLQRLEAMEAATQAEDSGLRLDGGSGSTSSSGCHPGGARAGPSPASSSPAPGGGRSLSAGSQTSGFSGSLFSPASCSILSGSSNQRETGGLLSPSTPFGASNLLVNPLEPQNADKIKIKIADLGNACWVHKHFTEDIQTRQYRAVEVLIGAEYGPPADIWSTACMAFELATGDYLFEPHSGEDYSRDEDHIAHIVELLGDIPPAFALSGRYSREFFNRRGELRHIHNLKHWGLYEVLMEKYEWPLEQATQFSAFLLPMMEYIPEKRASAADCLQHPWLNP

[14] = molecular target: FKBP12A/mTOR (Homo sapiens) (UniProt P62942+P42345); assay: Inhibition of mTOR/FKBP12 (unknown origin) at 1 uM relative to control; assay type: protein-complex assay
FKBP12A/mTOR (Homo sapiens), sequence (P62942 2-108 limits assumed, other chains not shown): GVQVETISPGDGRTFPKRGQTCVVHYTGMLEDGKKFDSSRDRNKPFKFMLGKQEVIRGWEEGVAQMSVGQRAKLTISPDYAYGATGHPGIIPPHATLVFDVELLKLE

[15] = molecular target: Serine/threonine-protein kinase Nek2 (Homo sapiens) (UniProt P51955); assay: Inhibition of NEK2 (unknown origin) at 1 uM relative to control
[16] = molecular target: Serine/threonine-protein kinase PAK 2 (Homo sapiens) (UniProt Q13177); assay: Inhibition of PAK2 (unknown origin) at 1 uM relative to control
Homo sapiens [17] = species on record: Homo sapiens; assay: Inhibition of PDGFR (unknown origin) at 1 uM relative to control
[18] = molecular target: Platelet-derived growth factor receptor alpha (Homo sapiens) (UniProt P16234); assay: Inhibition of PDGFR2 (unknown origin) at 1 uM relative to control
Homo sapiens [19] = species on record: Homo sapiens; assay: Inhibition of PhK2 (unknown origin) at 1 uM relative to control
[20] = molecular target: Serine/threonine-protein kinase D1 (Homo sapiens) (UniProt Q15139); assay: Inhibition of PKC-mu (unknown origin) at 1 uM relative to control
Serine/threonine-protein kinase D1 (Homo sapiens), sequence (Q15139 whole entry): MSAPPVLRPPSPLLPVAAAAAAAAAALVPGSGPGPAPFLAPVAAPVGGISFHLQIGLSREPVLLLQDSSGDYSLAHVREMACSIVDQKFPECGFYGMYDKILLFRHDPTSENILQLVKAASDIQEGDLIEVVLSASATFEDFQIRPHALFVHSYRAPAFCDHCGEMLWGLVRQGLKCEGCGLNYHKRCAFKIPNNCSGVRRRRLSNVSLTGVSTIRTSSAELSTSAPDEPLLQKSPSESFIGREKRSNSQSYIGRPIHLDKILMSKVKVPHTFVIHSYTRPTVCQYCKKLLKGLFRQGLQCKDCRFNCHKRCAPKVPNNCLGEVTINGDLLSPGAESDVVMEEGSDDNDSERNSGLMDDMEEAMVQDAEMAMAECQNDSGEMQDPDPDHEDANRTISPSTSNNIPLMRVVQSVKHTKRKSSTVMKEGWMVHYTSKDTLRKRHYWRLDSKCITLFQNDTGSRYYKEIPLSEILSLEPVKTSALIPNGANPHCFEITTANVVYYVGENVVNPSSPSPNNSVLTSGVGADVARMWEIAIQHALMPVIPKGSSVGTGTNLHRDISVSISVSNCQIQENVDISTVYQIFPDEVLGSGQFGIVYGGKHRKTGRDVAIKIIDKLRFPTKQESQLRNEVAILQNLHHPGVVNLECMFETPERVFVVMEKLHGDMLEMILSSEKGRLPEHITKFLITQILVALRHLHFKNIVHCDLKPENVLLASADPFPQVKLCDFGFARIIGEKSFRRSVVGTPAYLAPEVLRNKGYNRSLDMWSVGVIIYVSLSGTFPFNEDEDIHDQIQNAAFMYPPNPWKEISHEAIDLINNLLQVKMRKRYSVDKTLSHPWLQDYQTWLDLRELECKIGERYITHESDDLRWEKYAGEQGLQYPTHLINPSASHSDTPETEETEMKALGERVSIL

[21] = molecular target: cGMP-dependent protein kinase 1 (Homo sapiens) (UniProt Q13976); assay: Inhibition of PKG1 (unknown origin) at 1 uM relative to control
cGMP-dependent protein kinase 1 (Homo sapiens), sequence (Q13976 whole entry): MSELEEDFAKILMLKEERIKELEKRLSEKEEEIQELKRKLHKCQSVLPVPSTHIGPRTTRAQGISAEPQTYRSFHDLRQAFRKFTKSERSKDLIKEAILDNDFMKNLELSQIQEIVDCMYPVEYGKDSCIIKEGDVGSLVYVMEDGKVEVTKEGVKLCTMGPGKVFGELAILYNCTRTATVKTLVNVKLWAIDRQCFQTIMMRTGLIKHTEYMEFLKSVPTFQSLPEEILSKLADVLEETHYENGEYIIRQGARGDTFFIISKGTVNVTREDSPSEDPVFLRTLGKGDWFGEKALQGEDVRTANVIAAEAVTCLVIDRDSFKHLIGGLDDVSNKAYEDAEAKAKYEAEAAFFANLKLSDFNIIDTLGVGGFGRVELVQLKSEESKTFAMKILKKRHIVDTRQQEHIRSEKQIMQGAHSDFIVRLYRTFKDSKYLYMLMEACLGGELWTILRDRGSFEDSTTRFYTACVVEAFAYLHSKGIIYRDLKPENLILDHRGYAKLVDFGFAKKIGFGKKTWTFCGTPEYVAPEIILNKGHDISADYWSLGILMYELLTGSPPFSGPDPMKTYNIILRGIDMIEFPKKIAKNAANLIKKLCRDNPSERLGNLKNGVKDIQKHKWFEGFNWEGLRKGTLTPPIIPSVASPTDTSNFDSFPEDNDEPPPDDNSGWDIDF

[22] = molecular target: Rho-associated protein kinase 1 (Homo sapiens, UniProt Q13464); assay: Inhibition of ROCK1 (unknown origin)
[23] = molecular target: Serine/threonine-protein kinase 33 (Homo sapiens) (UniProt Q9BYT3); assay: Inhibition of STK33 (unknown origin) at 1 uM relative to control
[24] = molecular target: Angiopoietin-1 receptor (Homo sapiens) (UniProt Q02763); assay: Inhibition of Tie2 (unknown origin) at 1 uM relative to control
[25] = molecular target: Serine/threonine-protein kinase VRK2 (Homo sapiens) (UniProt Q86Y07); assay: Inhibition of VRK2 (unknown origin) at 1 uM relative to control
Serine/threonine-protein kinase VRK2 (Homo sapiens), sequence (Q86Y07 whole entry): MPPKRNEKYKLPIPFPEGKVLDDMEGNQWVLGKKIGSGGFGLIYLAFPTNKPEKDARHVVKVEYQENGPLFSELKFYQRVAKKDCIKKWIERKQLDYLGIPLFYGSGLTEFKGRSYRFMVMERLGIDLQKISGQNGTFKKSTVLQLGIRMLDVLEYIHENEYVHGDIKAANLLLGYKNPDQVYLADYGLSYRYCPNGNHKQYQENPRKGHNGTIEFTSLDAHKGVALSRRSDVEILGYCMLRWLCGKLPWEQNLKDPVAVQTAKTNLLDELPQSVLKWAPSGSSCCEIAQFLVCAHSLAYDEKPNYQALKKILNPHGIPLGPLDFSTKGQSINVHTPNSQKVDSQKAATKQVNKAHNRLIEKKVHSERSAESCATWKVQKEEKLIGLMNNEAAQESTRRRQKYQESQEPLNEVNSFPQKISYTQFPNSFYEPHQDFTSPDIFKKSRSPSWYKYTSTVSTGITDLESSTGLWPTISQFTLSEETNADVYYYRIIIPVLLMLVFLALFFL

[26] = molecular target: Vascular endothelial growth factor receptor 1 (Homo sapiens, UniProt P17948); assay: Inhibition of Flt1 (unknown origin) at 1 uM relative to control
Vascular endothelial growth factor receptor 1, sequence (P17948 whole entry): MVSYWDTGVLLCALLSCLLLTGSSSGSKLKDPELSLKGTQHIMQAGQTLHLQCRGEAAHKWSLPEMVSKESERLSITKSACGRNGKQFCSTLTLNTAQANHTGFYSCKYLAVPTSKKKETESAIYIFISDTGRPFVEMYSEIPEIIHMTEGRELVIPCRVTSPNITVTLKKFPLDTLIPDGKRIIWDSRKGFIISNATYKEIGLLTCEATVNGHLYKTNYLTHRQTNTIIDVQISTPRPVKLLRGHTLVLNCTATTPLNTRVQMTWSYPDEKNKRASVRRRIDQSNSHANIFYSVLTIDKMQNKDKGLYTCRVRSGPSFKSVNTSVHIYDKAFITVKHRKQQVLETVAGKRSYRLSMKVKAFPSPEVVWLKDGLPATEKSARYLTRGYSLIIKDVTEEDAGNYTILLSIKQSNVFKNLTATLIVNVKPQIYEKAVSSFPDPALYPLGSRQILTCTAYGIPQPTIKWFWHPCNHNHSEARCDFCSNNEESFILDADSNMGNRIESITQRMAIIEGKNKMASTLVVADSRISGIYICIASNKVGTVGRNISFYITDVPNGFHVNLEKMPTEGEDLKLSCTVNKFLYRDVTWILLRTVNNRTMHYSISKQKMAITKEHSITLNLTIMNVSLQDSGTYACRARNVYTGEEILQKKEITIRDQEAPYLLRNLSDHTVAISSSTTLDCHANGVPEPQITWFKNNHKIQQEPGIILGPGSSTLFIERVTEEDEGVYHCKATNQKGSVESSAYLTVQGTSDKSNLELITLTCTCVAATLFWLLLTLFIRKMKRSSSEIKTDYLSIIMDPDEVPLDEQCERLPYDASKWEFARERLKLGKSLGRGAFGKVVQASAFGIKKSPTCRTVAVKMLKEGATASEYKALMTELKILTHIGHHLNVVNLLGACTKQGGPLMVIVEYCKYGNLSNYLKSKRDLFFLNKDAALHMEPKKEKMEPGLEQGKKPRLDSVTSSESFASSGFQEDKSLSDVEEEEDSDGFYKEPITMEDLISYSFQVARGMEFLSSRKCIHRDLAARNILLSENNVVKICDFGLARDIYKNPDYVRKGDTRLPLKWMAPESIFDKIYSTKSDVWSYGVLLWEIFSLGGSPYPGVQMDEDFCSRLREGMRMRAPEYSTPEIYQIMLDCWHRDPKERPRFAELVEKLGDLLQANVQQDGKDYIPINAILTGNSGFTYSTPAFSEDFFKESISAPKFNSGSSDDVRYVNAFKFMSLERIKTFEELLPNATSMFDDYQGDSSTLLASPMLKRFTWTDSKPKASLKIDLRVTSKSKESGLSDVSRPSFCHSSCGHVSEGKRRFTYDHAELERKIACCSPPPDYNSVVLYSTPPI

[27] = molecular target: MAP kinase-interacting serine/threonine-protein kinase 2 (Homo sapiens, UniProt Q9HBH9); assay: Inhibition of MNK2 (unknown origin) at 1 uM relative to control
[28] = molecular target: Receptor-type tyrosine-protein kinase FLT3 (Homo sapiens) (UniProt P36888); assay: Inhibition of Flt3 (unknown origin) at 1 uM relative to control
RPMI-8226 = assay: Inhibition of human […] cell differentiation assessed as effect on IL-4 mRNA expression at 0.1 to 1 uM by RT-PCR analysis; assay type: functional, cell-based; conditions: dose 0.1-1 µM
[29] = Oral bioavailability in CD-1 mouse at 5 mg/kg measured upto 24 hrs by LC-MS analysis; assay type: ADME, organism-based; conditions: in vivo
[30] = Half life in Sprague-Dawley rat at 5 mg/kg, po measured upto 24 hrs by LC-MS analysis; assay type: ADME, organism-based; conditions: in vivo
[31] = Oral bioavailability in Sprague-Dawley rat at 5 mg/kg measured upto 24 hrs by LC-MS analysis; assay type: ADME, organism-based; conditions: in vivo
Rattus norvegicus = assay: Antiarthritic activity against collagen-induced arthritis Dark Agouti rat model assessed as reduction in clinical score at 1 to 10 mg/kg, po measured after day 5; assay type: functional, organism-based; conditions: dose 1-10 mg/kg, time 5.0 day
Mus musculus [32] = assay: Antiarthritic activity against collagen-induced arthritis DBA/1J mouse model assessed as reduction in infiltration of CD3 positive T cells in paw at 50 mg/kg, po administered twice daily for 14 days by immunohistochemistry analysis; assay type: functional, organism-based; conditions: T-cell, time 14.0 day
Mus musculus [33] = assay: Antiarthritic activity against collagen-induced arthritis DBA/1J mouse model assessed as reduction in IL-6 expression at 50 mg/kg, po measured for 4 hrs; assay type: functional, organism-based
Mus musculus [34] = assay: Antiarthritic activity against collagen-induced arthritis DBA/1J mouse model assessed as reduction in MMP13 expression at 50 mg/kg, po measured for 4 hrs; assay type: functional, organism-based
Mus musculus [35] = assay: Antiarthritic activity against collagen-induced arthritis DBA/1J mouse model assessed as MCP-5 level in serum at 50 mg/kg, po measured for 4 hrs by luminex analysis (reference value: 62.8 +/- 12.4 ng/ml); assay type: functional
Mus musculus [36] = assay: Antiarthritic activity against collagen-induced arthritis DBA/1J mouse model assessed as MDC level in serum at 50 mg/kg, po measured for 4 hrs by luminex analysis (reference value: 463.8 +/- 32.7 ng/ml); assay type: functional
Mus musculus [37] = assay: Antiarthritic activity against collagen-induced arthritis DBA/1J mouse model assessed as reduction in IL-6 level in serum at 50 mg/kg, po measured for 4 hrs by luminex analysis; assay type: functional, organism-based
Mus musculus [38] = assay: Antiarthritic activity against collagen-induced arthritis DBA/1J mouse model assessed as reduction in MX2 level in whole blood at 50 mg/kg, po measured for 2 weeks by luminex analysis; assay type: functional, organism-based

SMILES: O=C(Nc1nc2cccc(-c3ccc(CN4CCS(=O)(=O)CC4)cc3)n2n1)C1CC1 [FILGOTINIB]
- inhibition [1]: 17%
- IC50 [2]: > 10 µM
- inhibition [3]: 7%
- inhibition [4]: 6%
- inhibition [5]: 12%
- inhibition [6]: -9%
- inhibition [7]: -6%
- inhibition [8]: -5%
- IC50 [9]: > 10 µM
- IC50 [10]: > 10 µM
- inhibition [11]: 0%
- inhibition [12]: 13%
- inhibition [13]: 2%
- inhibition [14]: 3%
- inhibition [15]: -10%
- inhibition [16]: 3%
- inhibition (Homo sapiens [17]): 2%
- inhibition [18]: -10%
- inhibition (Homo sapiens [19]): -7%
- inhibition [20]: -10%
- inhibition [21]: -1%
- IC50 [22]: > 10 µM
- inhibition [23]: -8%
- inhibition [24]: -2%
- inhibition [25]: 2%
- inhibition [26]: 37%
- inhibition [27]: -10%
- inhibition [28]: 58%
- inhibition (RPMI-8226): Active
- bioavailability [29]: ~100%
- half-life [30]: 3.9 h
- bioavailability [31]: 45%
- Activity (Rattus norvegicus): Active
- Activity (Mus musculus [32]): Active
- Activity (Mus musculus [33]): Active
- Activity (Mus musculus [34]): Active
- Activity (Mus musculus [35]): 36.4 ng/mL
- Activity (Mus musculus [36]): 372.4 ng/mL
- Activity (Mus musculus [37]): Active
- Activity (Mus musculus [38]): inactive
